Paper PMC8403975 (Bioorganic Chemistry, 2021)
In brackets after ≈: the same amount, converted by molar mass. Several values for one entry are separate records, joined by “and”; a condition that tells them apart may be missing. Equal values may be shown once. Read-outs that look alike come from different tables or passages of the source.

Experiments:
[1] = system: PMA-differentiated THP-1 cells; assay: PMA-differentiated THP-1 cell viability assay; format: cell-based; conditions: Homo sapiens, THP-1, 24 h
[2] = system: voltage-dependent Ca2+ channels (isolated rat ileum); assay: Calcium antagonism: relaxation of K+; conditions: K+ (80 mM)-induced contractions of rat ileum; mean ± SD, three independent experiments
[3] = target: ACE2:SARS-CoV-2 Spike (RBD) (Homo sapiens, UniProt Q9BYF1); assay: biochemical; format: binding
Male Wistar albino rats = format: in vivo, rat; conditions: mean arterial BP compared to the control group
[4] = system: IL-6 production in LPS-stimulated THP-1 cells; assay: IL-6 production by LPS-stimulated PMA-differentiated THP-1 cells; format: cell-based, human; conditions: compared to LPS (positive control); for Reduction of IL-6 level: compound at 1/4 IC50, added 2 h prior to LPS 0.5 μg/mL, 24 h
[5] = system: CRP production in LPS-stimulated THP-1 cells; assay: CRP production by LPS-stimulated PMA-differentiated THP-1 cells; format: cell-based, human; conditions: compared to LPS (positive control); for Effect on CRP level (in words): compound at 1/4 IC50, LPS 0.5 μg/mL

Chain of ACE2:SARS-CoV-2 Spike (RBD) (Q9BYF1 18-740): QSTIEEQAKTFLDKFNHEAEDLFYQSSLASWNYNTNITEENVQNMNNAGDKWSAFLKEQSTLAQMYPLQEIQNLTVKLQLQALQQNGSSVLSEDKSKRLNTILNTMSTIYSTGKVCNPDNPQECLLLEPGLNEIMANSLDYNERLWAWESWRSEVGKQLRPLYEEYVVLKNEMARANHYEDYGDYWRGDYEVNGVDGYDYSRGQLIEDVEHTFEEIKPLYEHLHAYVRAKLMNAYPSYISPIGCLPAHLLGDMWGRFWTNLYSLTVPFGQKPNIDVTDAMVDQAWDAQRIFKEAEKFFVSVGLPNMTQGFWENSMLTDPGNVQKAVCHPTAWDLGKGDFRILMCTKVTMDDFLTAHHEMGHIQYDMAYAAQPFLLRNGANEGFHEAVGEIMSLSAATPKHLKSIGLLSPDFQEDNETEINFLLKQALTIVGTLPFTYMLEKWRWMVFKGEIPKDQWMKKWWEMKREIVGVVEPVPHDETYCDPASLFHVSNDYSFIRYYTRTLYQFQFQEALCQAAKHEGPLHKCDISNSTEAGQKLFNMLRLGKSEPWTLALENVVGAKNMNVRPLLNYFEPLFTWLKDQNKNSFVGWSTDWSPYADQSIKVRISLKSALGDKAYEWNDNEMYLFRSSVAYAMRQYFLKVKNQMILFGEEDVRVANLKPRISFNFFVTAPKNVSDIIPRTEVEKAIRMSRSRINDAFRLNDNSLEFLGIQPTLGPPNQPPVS

SMILES: CCOC(=O)C1=C(C)NC(=S)NC1c1ccccc1C#N (stereo not shown) [Compound 4a, Ethyl-4-(2-cyanophenyl)-6-methyl-2-thioxo-1,2,3,4-tetrahydropyrimidine-5-carboxylate]
- IC50 [1]: 1550 ± 134 µg/mL
- IC50 ([1]; read-out: IC50 µM): 533 µM
- IC50 [2]: 23.07 ± 1.53 µg/mL (≈ 76.6 µM)
- IC50 [3]: 8.5 ± 0.92 nM

SMILES: CCOC(=O)C1=C(C)NC(=S)NC1c1ccccc1Cl (stereo not shown) [Compound 4b, Ethyl-4-(2-chlorophenyl)-6-methyl-2-thioxo-1,2,3,4-tetrahydropyrimidine-5-carboxylate]
- IC50 [1]: 698 ± 65.6 µg/mL
- IC50 ([1]; read-out: IC50 µM): 231 µM
- IC50 [2]: 24.69 ± 2.35 µg/mL (≈ 79.4 µM)
- IC50 [3]: ~12.5 nM and 12.5 nM

SMILES: CCOC(=O)C1=C(C)NC(=S)NC1c1ccccc1Br (stereo not shown) [Compound 4c, Ethyl-4-(2-bromophenyl)-6-methyl-2-thioxo-1,2,3,4-tetrahydropyrimidine-5-carboxylate]
- % reduction in BP (Male Wistar albino rats): about 21%
- IC50 [2]: 23.62 ± 2.33 µg/mL (≈ 66.5 µM)
- IC50 [3]: 23 ± 1 nM

SMILES: CC1=C(C(=O)O)C(c2ccccc2C#N)NC(=S)N1 (stereo not shown) [Compound 5a, 4-(2-cyanophenyl)-6-methyl-2-thioxo-1,2,3,4-tetrahydropyrimidine-5-carboxylic acid]
- IC50 [1]: 496 ± 38.7 µg/mL
- IC50 ([1]; read-out: IC50 µM): 118 µM
- IC50 [2]: 24.37 ± 1.45 µg/mL (≈ 89.2 µM)
- Reduction of IL-6 level [4]: about 56%
- Effect on CRP level (in words) [5]: moderate decrease
- IC50 [3]: 9.8 ± 1.06 nM

SMILES: CC1=C(C(=O)O)C(c2ccccc2Cl)NC(=S)N1 (stereo not shown) [Compound 5b, 4-(2-chlorophenyl)-6-Methyl-2-thioxo-1,2,3,4-tetrahydropyrimidine-5-carboxylic acid]
- IC50 [1]: 967 ± 79.2 µg/mL
- IC50 ([1]; read-out: IC50 µM): 342 µM
- IC50 [2]: 25.25 ± 1.39 µg/mL (≈ 89.3 µM)
- IC50 [3]: ~12.5 nM and 12.5 nM

SMILES: CC1=C(C(=O)Cl)C(c2ccccc2C#N)NC(=S)N1 (stereo not shown) [Compound 6a, 6-Methyl-4-(2-cyanophenyl)-2-thioxo-1,2,3,4-tetrahydropyrimidine-5-carbonyl chloride]
- IC50 [2]: 26.84 ± 1.51 µg/mL
- IC50 [3]: 17.5 ± 1.31 nM

SMILES: CC1=C(C(=O)Cl)C(c2ccccc2Cl)NC(=S)N1 (stereo not shown) [Compound 6b, 6-Methyl-4-(2-chlorophenyl)-2-thioxo-1,2,3,4-tetrahydropyrimidine-5-carbonyl chloride]
- IC50 [2]: 30.78 ± 2.52 µg/mL
- IC50 [3]: 23.7 ± 1.35 nM

SMILES: CC1=C(C(=O)Cl)C(c2ccccc2Br)NC(=S)N1 (stereo not shown) [Compound 6c, 6-Methyl-4-(2-bromophenyl)-2-thioxo-1,2,3,4-tetrahydropyrimidine-5-carbonyl chloride]
- IC50 [2]: 29.73 ± 2.44 µg/mL
- IC50 [3]: 16.5 ± 1.08 nM

SMILES: CC1=C(C(=O)Nc2ccccc2)C(c2ccccc2C#N)NC(=S)N1 (stereo not shown) [Compound 7a, 4-(2-cyanophenyl)-6-methyl-N-phenyl-2-thioxo-1,2,3,4-tetrahydropyrimidine-5-carboxamide]
- IC50 [1]: 434 ± 32.9 µg/mL
- IC50 ([1]; read-out: IC50 µM): 123 µM
- % reduction in BP (Male Wistar albino rats): up to 29%
- IC50 [2]: 19.65 ± 1.60 µg/mL (≈ 56.4 µM)
- Effect on IL-6 level (in words) ([4]; compound at 1/4 IC50, LPS 0.5 μg/mL): lowest effect
- IC50 [3]: 11.6 ± 0.94 nM

SMILES: CC1=C(C(=O)Nc2ccc(C)cc2)C(c2ccccc2C#N)NC(=S)N1 (stereo not shown) [Compound 7b, 4-(2-cyanophenyl)-6-methyl-N-(4-methylphenyl)-2-thioxo-1,2,3,4-tetrahydropyrimidine-5-carboxamide]
- IC50 [1]: 222 ± 10.1 µg/mL
- IC50 ([1]; read-out: IC50 µM): 61 µM
- IC50 [2]: 22.81 ± 2.46 µg/mL (≈ 62.9 µM)
- Reduction of IL-6 level [4]: 47%
- Effect on CRP level (in words) [5]: moderate decrease
- IC50 [3]: 10.8 ± 0.75 nM

SMILES: CC1=C(C(=O)Nc2ccc(F)cc2)C(c2ccccc2C#N)NC(=S)N1 (stereo not shown) [Compound 7c, 4-(2-cyanophenyl)-6-methyl-N-(4–fluorophenyl)-2-thioxo-1,2,3,4-tetrahydropyrimidine-5-carboxamide]
- IC50 [2]: 22.85 ± 1.11 µg/mL (≈ 62.4 µM)
- IC50 [3]: 20.1 ± 1.1 nM

SMILES: CC1=C(C(=O)Nc2ccccc2)C(c2ccccc2Cl)NC(=S)N1 (stereo not shown) [Compound 8a, 4-(2-chlorophenyl)-6-methyl-N-phenyl-2-thioxo-1,2,3,4-tetrahydropyrimidine-5-carboxamide]
- IC50 [1]: 464 ± 29.7 µg/mL
- IC50 ([1]; read-out: IC50 µM): 125 µM
- % reduction in BP (Male Wistar albino rats): up to 29%
- IC50 [2]: 20.23 ± 1.79 µg/mL (≈ 56.5 µM)
- IC50 [3]: 10.6 ± 0.61 nM

SMILES: CC1=C(C(=O)Nc2ccc(C)cc2)C(c2ccccc2Cl)NC(=S)N1 (stereo not shown) [Compound 8b, 4-(2-chlorophenyl)-6-methyl-N-(4-methylphenyl)-2-thioxo-1,2,3,4-tetrahydropyrimidine-5-carboxamide]
- IC50 [2]: 22.91 ± 2.59 µg/mL (≈ 61.6 µM)
- IC50 [3]: 19.2 ± 1.11 nM

SMILES: CC1=C(C(=O)Nc2ccccc2)C(c2ccccc2Br)NC(=S)N1 (stereo not shown) [Compound 9a, 4-(2-bromophenyl)-6-methyl-N-phenyl-2-thioxo-1,2,3,4-tetrahydropyrimidine-5-carboxamide]
- IC50 [1]: 484.9 ± 3.24 µg/mL
- IC50 ([1]; read-out: IC50 µM): 116 µM
- % reduction in BP (Male Wistar albino rats): 27%
- IC50 [2]: 21.45 ± 2.55 µg/mL (≈ 53.3 µM)
- Reduction of IL-6 level [4]: ~79%
- Decrease in the level of CRP ([5]; compound at 1/4 IC50, added 2 h prior to LPS 0.5 μg/mL, 24 h): about 95%
- IC50 [3]: 13.7 ± 1.37 nM
